Some test systems named below: HS 578T breast; NCI-H226 lung; HOP-62 NSCLC; SK-MEL-2 melanoma; HL-60(TB) leukemia; A549 NSCLC; RPMI-8226 leukemia; DU-145 prostate; SF-268 CNS; SK-MEL-28 melanoma.
Holding throughout (test): inhibition of tumour cell growth, NCI panel, 48 h

SMILES strings stand for the structures.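 Five concentrations, 48 hours, 96-well plates. At the GI50, growth is halved. At the TGI there is no net growth.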

With `CCC(CC)n1cnc2c(-c3cnc(N)cn3)nc(N3CC4CCC(C3)O4)nc21`, the GI50 with HS 578T breast was 0.209 µM; in the assay with NCI-H226 lung, 0.549 µM; in the assay with HOP-62 NSCLC it was 1.08 µM; in the assay on SK-MEL-2 melanoma it was 0.391 µM; in the assay with HL-60(TB) leukemia, 1.41 µM; in the assay on A549 NSCLC, 0.405 µM. Besides, the GI50 in the assay on RPMI-8226 leukemia is 0.102 µM; in the assay with DU-145 prostate, 0.93 µM; with SF-268 CNS, 0.566 µM. The TGI in the assay on HS 578T breast is 1.61 µM; in the assay with NCI-H226 lung, above 100 µM; in the assay on HOP-62 NSCLC, above 100 µM; in the assay on SK-MEL-2 melanoma it was 3.25 µM; in the assay on HL-60(TB) leukemia, above 100 µM; in the assay with A549 NSCLC, above 100 µM. The TGI is 5.75 µM in the assay on RPMI-8226 leukemia, above 100 µM in the assay with DU-145 prostate and above 100 µM with SF-268 CNS.

Regarding `O=C1c2ccccc2C(=O)N1CCc1ncc(-c2ccccc2)[nH]1`, the TGI with SK-MEL-28 melanoma, in the assay with HS 578T breast, with NCI-H226 lung, with HOP-62 NSCLC, in the assay with SK-MEL-2 melanoma and in the assay with HL-60(TB) leukemia was above 100 µM each time. For the same compound, the TGI in the assay with A549 NSCLC, in the assay on DU-145 prostate and in the assay with SF-268 CNS was above 100 µM each time.

Turning to `COc1ccc(NC(=O)Oc2ccc3c(C)cc(=O)oc3c2)c(OC)c1` (tested in a mixture with another compound), the TGI in the assay on SK-MEL-28 melanoma, in the assay with HS 578T breast, with NCI-H226 lung, in the assay on HOP-62 NSCLC, with SK-MEL-2 melanoma and in the assay on A549 NSCLC was above 100 µM in each case. Further, the TGI in the assay on RPMI-8226 leukemia, in the assay on DU-145 prostate and in the assay on SF-268 CNS was above 100 µM throughout.

For `C=C(C)[C@@H]1CC[C@]2(CO)CC[C@]3(C)[C@H](CC[C@@H]4[C@@]5(C)CCCNC(C)(C)[C@@H]5CC[C@]43C)[C@@H]12`, the GI50 in the assay with SK-MEL-28 melanoma is 1.62 µM; in the assay with HS 578T breast, 1.99 µM; with NCI-H226 lung, 1.98 µM; in the assay with HOP-62 NSCLC, 1.81 µM; in the assay with A549 NSCLC, 1.73 µM; in the assay with RPMI-8226 leukemia, 1.94 µM. In addition, the GI50 in the assay on DU-145 prostate is 1.63 µM; in the assay with SF-268 CNS, 1.74 µM. The TGI was determined as 3.16 µM in the assay on SK-MEL-28 melanoma; 4.79 µM with HS 578T breast; 4.09 µM in the assay on NCI-H226 lung; 3.42 µM with HOP-62 NSCLC; 3.24 µM in the assay on A549 NSCLC; 4.51 µM with RPMI-8226 leukemia. The TGI in the assay on DU-145 prostate was determined as 3.02 µM; in the assay on SF-268 CNS it was 3.54 µM.

As for `Cc1ccc(CNc2ccc3nc(CCC4CCCCC4)[nH]c3c2)cc1`, the GI50 is 2.16 µM in the assay with HS 578T breast; 1.77 µM with NCI-H226 lung; 2.08 µM with HOP-62 NSCLC; 2.31 µM in the assay on SK-MEL-2 melanoma; 1.98 µM in the assay with HL-60(TB) leukemia; 3.02 µM with A549 NSCLC. Besides, the GI50 in the assay with RPMI-8226 leukemia is 2.03 µM; in the assay on DU-145 prostate, 3.73 µM; in the assay on SF-268 CNS, 3.08 µM. For the same compound, the TGI stood at 7.06 µM in the assay with HS 578T breast; 3.92 µM in the assay with NCI-H226 lung; 4.83 µM in the assay with HOP-62 NSCLC; 5.5 µM with SK-MEL-2 melanoma; 4.62 µM in the assay on HL-60(TB) leukemia; 17.6 µM in the assay on A549 NSCLC. Further, the TGI with RPMI-8226 leukemia is 4.64 µM; with DU-145 prostate it was above 100 µM; with SF-268 CNS, above 100 µM.

Regarding `CC1=C([Te]c2ccccc2)C(=O)c2ccccc2C1=O`, the GI50 was 1.25 µM in the assay with SK-MEL-28 melanoma; 0.303 µM in the assay on HS 578T breast; 0.266 µM in the assay on HOP-62 NSCLC; 2.37 µM in the assay with SK-MEL-2 melanoma; 0.326 µM in the assay with HL-60(TB) leukemia; 0.298 µM in the assay with A549 NSCLC. The GI50 in the assay on RPMI-8226 leukemia was 0.275 µM; with DU-145 prostate, 0.424 µM; in the assay with SF-268 CNS, 0.383 µM. Further, the TGI came out at 3.11 µM in the assay on SK-MEL-28 melanoma; 2.46 µM in the assay on HS 578T breast; 0.762 µM in the assay with HOP-62 NSCLC; 5.58 µM in the assay on SK-MEL-2 melanoma; 1.54 µM in the assay on HL-60(TB) leukemia; 1.23 µM in the assay on A549 NSCLC. Besides, the TGI turned out to be 1.31 µM in the assay with RPMI-8226 leukemia, 1.58 µM in the assay on DU-145 prostate and 1.64 µM in the assay on SF-268 CNS.

Consider `COc1ccc2c(c1)CCC1C2CC[C@@]2(C)C1CC[C@@H]2NC(=O)Cc1ccc(O)c(O)c1` (stereo not given in full), for which the GI50 was 9.9 µM in the assay on SK-MEL-28 melanoma; 7.22 µM with HS 578T breast; 10.1 µM in the assay with NCI-H226 lung; 15.2 µM in the assay with SK-MEL-2 melanoma; 14.6 µM with A549 NSCLC; 3.68 µM with RPMI-8226 leukemia. In addition, the results for the GI50 in the assay with DU-145 prostate and in the assay on SF-268 CNS were 8.47 µM and 7.48 µM, respectively. For the same compound, the TGI was 24.2 µM in the assay on SK-MEL-28 melanoma; 43.9 µM in the assay with HS 578T breast; 35.3 µM in the assay with NCI-H226 lung; 33.8 µM in the assay with SK-MEL-2 melanoma; 29.9 µM in the assay on A549 NSCLC; above 100 µM in the assay with RPMI-8226 leukemia. Also, the TGI in the assay with DU-145 prostate came to 20.8 µM; in the assay with SF-268 CNS, 25.3 µM.

With `O=C(O)/C=C/c1ccc(Oc2ccccc2C(=O)O)o1`, the TGI in the assay on SK-MEL-28 melanoma, in the assay on HS 578T breast, in the assay on HOP-62 NSCLC, in the assay on HL-60(TB) leukemia, in the assay with A549 NSCLC and with RPMI-8226 leukemia was above 10 µM each time. For the same compound, the TGI in the assay with DU-145 prostate and in the assay with SF-268 CNS was above 10 µM throughout.

With `Cc1ccc(S(=O)(=O)ON2C(=O)c3cccc4cc([N+](=O)[O-])cc(c34)C2=O)cc1`, the TGI in the assay with SK-MEL-28 melanoma, in the assay with HS 578T breast, in the assay with NCI-H226 lung, with HOP-62 NSCLC, in the assay on SK-MEL-2 melanoma and with A549 NSCLC was above 100 µM each time. The TGI in the assay with RPMI-8226 leukemia, in the assay with DU-145 prostate and with SF-268 CNS was above 100 µM in each case.

With `Cc1cc(OCc2nnc3n2S(=O)(=O)c2ccccc2N3C)ccc1Cl`, the TGI in the assay with SK-MEL-28 melanoma is above 100 µM; with HS 578T breast it was above 100 µM; in the assay with NCI-H226 lung it was above 100 µM; in the assay with HOP-62 NSCLC, 29.7 µM; in the assay on SK-MEL-2 melanoma, above 100 µM; with HL-60(TB) leukemia it was 55.1 µM. In addition, the TGI with A549 NSCLC was above 100 µM; in the assay with DU-145 prostate, above 100 µM; in the assay on SF-268 CNS, 68 µM.

(Values after PubChem BioAssay (NCI).)
